Tests used:
Assay in all cases: area over the GR curve, 72 h; higher = more effect;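 note: Dye Drop or Deep Dye Drop imaging of viable cells in 384-well plates (Hoechst nuclei, LIVE/DEAD dye), nine half-log doses, GR normalized to DMSO controls and time-zero plates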
SUM1315 = test system: SUM1315
EVSAT = test system: EVSAT
HCC1937 = test system: HCC1937
SKBR3 = test system: SKBR3
SUM44PE = test system: SUM44PE
SUM159 = test system: SUM159
MDAMB436 = test system: MDAMB436
CAL51 = test system: CAL51
UACC893 = test system: UACC893
CAL120 = test system: CAL120
ZR751 = test system: ZR751
BT549 = test system: BT549

SMILES | area over the GR curve (SUM1315) | area over the GR curve (EVSAT) | area over the GR curve (HCC1937) | area over the GR curve (SKBR3) | area over the GR curve (SUM44PE) | area over the GR curve (SUM159) | area over the GR curve (MDAMB436) | area over the GR curve (CAL51) | area over the GR curve (UACC893) | area over the GR curve (CAL120) | area over the GR curve (ZR751) | area over the GR curve (BT549)
COc1ccc2c(c1)[C@]1(C[C@H]1c1ccc3c(/C=C/c4ccc(CN5C[C@@H](C)O[C@@H](C)C5)cc4)n[nH]c3c1)C(=O)N2 | 0.83 GR | 0.531 GR | 0.655 GR | 0.711 GR | 0.898 GR | 0.629 GR | 0.768 GR | 0.562 GR | 0.416 GR | 0.518 GR | 0.451 GR | 0.889 GR
COc1cccc(OCCCN)c1-c1cc(Nc2cnc(C#N)cn2)n[nH]1 | 0.809 GR | 0.0022 GR | 0.55 GR | 0.802 GR | 0.75 GR | 0.533 GR | 0.545 GR | 0.528 GR | 0.171 GR | 0.344 GR | 0.3 GR | 1.4 GR
CC(=O)Nc1cccc(-n2c(=O)n(C3CC3)c(=O)c3c(Nc4ccc(I)cc4F)n(C)c(=O)c(C)c32)c1 (max 1 µM) | 0.389 GR | 0.0263 GR | 0.138 GR | 0.182 GR | 0.186 GR | 0.347 GR | 0.182 GR | 0.0662 GR | 0.434 GR | 0.294 GR | 0.328 GR | 0.129 GR
CCc1cnn2c(NCc3ccc[n+]([O-])c3)cc(N3CCCC[C@H]3CCO)nc12 (max 1 µM) | 0.766 GR | 0.0948 GR | 0.475 GR | 0.835 GR | 0.334 GR | 0.465 GR | 0.483 GR | 0.599 GR | 0.67 GR | 0.555 GR | 0.468 GR | 0.591 GR
CC(=O)c1c(C)c2cnc(Nc3ccc(N4CCNCC4)cn3)nc2n(C2CCCC2)c1=O (max 3.162 µM) | 0.33 GR | 0.141 GR | -0.0629 GR | 0.285 GR | 0.216 GR | 0.186 GR | -0.0424 GR | 0.25 GR | 0.436 GR | 0.142 GR | 0.12 GR | -0.0495 GR
CCc1cncnc1N1CCN(Cc2nc3ccc(C(F)(F)F)cc3[nH]2)CC1 (max 10 µM) | 0.0975 GR | 0.0249 GR | 0.039 GR | 0.0204 GR | 0.0041 GR | 0.0106 GR | 0.0903 GR | 0.0491 GR | 0.0713 GR | 0.0139 GR | -0.0587 GR | -0.0132 GR
CCCCOc1c(C(=O)c2c(F)cc(C)cc2F)c[nH]c2nncc1-2 (max 10 µM) | 0.872 GR | 0.322 GR | 0.917 GR | 0.541 GR | 1.12 GR | 0.466 GR | 0.355 GR | 0.226 GR | 0.519 GR | 0.346 GR | 0.209 GR | 0.94 GR
CCN1CCN(Cc2ccc(Nc3ncc(F)c(-c4cc(F)c5nc(C)n(C(C)C)c5c4)n3)nc2)CC1 (max 10 µM) | 0.582 GR | 0.324 GR | 0.102 GR | 0.536 GR | 0.651 GR | 0.372 GR | 0.187 GR | 0.578 GR | 0.657 GR | 0.478 GR | 0.429 GR | 0.127 GR
CNc1nc(-c2ccc3c(N)n[nH]c3c2)cc(N2C[C@@H](C(=O)NC3CCCCC3)CC[C@H]2C)n1 (max 10 µM) | 0.291 GR | 0.257 GR | 0.146 GR | 0.318 GR | 0.165 GR | 0.106 GR | 0.0007 GR | 0.0516 GR | 0.137 GR | 0.0896 GR | 0.257 GR | 0.0789 GR
CO[C@@H](C)Cn1c(=O)n(C)c2cnc3ccc(-c4cncc(C(C)(C)O)c4)cc3c21 (max 10 µM) | 0.693 GR | 0.795 GR | 0.485 GR | 0.824 GR | 1.02 GR | 0.727 GR | 0.372 GR | 0.631 GR | 0.992 GR | 0.696 GR | 0.691 GR | 0.765 GR
Cc1nn(C)c(COc2ccc(N3CCN(S(=O)(=O)N(C)C)CC3)cc2)c1-c1cccc2c(CCCOc3cccc4ccccc34)c(C(=O)O)n(CCN3CCOCC3)c12 (max 10 µM) | -0.0531 GR | 0.0097 GR | 0.006 GR | 0.0389 GR | 0.14 GR | -0.0068 GR | 0.014 GR | 0.0073 GR | -0.0074 GR | 0.0152 GR | -0.0518 GR | 0.0083 GR
CN(C)CC[C@H](CSc1ccccc1)Nc1ccc(S(=O)(=O)NC(=O)c2ccc(N3CCN(Cc4ccccc4-c4ccc(Cl)cc4)CC3)cc2)cc1[N+](=O)[O-] [ABT-737] (max 10 µM) | 0.0822 GR | 0.0258 GR | 0.0829 GR | -0.0209 GR | -0.0051 GR | 0.0034 GR | -0.0008 GR | 0.0125 GR | -0.0097 GR | 0.2 GR | 0.0133 GR | -0.0258 GR
C=CCn1c(=O)c2cnc(Nc3ccc(N4CCN(C)CC4)cc3)nc2n1-c1cccc(C(C)(C)O)n1 [AZD1775] (max 10 µM) | 1.02 GR | 0.228 GR | 0.707 GR | 0.528 GR | 0.502 GR | 0.253 GR | 0.497 GR | 0.461 GR | 0.488 GR | 0.483 GR | 0.143 GR | 0.446 GR
CNC(=O)c1cccc(-c2ccc3c(N4CCOC[C@@H]4C)nc(N4CCOC[C@@H]4C)nc3n2)c1 [AZD2014] (max 10 µM) | 0.663 GR | 0.75 GR | 0.52 GR | 0.87 GR | 0.917 GR | 0.481 GR | 0.363 GR | 0.485 GR | 0.845 GR | 0.464 GR | 0.8 GR | 0.491 GR
NC1(C(=O)N[C@@H](CCO)c2ccc(Cl)cc2)CCN(c2nc[nH]c3nccc2-3)CC1 [AZD5363] (max 10 µM) | 0.144 GR | 0.728 GR | 0.353 GR | 0.23 GR | 0.596 GR | 0.177 GR | 0.104 GR | 0.161 GR | 0.769 GR | 0.0399 GR | 0.0911 GR | 0.211 GR

Reference: the supplement of paper PMC9663587
